What was measured:
[1] = molecular target: T1, mFFA4 (mouse FFA4) (Mus musculus, UniProt Q7TMA4); assay: bystander BRET arrestin-3 recruitment, HEK293T; type: cell-based
T1 sequence (Q7TMA4 1-361): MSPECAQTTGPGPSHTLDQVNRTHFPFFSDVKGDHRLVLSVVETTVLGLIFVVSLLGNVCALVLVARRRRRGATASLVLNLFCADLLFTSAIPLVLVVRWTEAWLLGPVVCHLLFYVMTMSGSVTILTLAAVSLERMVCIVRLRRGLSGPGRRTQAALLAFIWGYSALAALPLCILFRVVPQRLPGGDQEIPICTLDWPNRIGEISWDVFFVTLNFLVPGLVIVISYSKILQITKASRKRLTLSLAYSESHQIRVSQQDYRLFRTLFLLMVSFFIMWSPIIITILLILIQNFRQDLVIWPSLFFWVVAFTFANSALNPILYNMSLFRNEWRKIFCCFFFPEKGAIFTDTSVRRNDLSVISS

[2] = molecular target: T1, mFFA4 (mouse FFA4); assay: Ca2+ mobilisation, Fura-2, Flp-In T-REx […]; type: cell-based

IC50 [1] | EC50 [2] | Structure (SMILES)
0.2 µM | – | Cc1ccc(S(=O)(=O)NC2c3ccccc3Oc3ccccc32)cc1 [AH7614, 4-Methyl-N-9H-xanthen-9-yl-benzenesulfonamide]
– | 10 µM | CC/C=C\C/C=C\C/C=C\CCCCCCCC(=O)O [aLA]
